Reference: patent publication US20140024803A1, “18FDG MULTIMERIC POSITRON EMISSION TOMOGRAPHY IMAGING AGENTS” (priority 2012, published 2014)

Assay: In vitro calcium salt specificity experiment (PET/CT of crystals after incubation and washing)
Format: binding
Conditions: 5 mg/mL calcium salts (HA, phosphate, oxalate, carbonate, pyrophosphate), 10 μCi in 100 μL PBS, 20 min at RT, washed, 10 minute static PET/CT scan
Description: To determine the selectivity and specificity of ^18FDG amino-Ad-Pam-Monomer for hydroxyapatite (HA), a major mineral component of calcifications and normal bone, over other calcium salts, in the present invention an incubation of equal quantity each of Ca-hydroxyapatite (HA), Ca-pyrophosphate (CPP), Ca-phosphate (CP), Ca-oxalate (CO), and Ca-carbonate (CC) salts with ^18FDG amino-Ad-Pam-Monomer in phosphate buffered saline (PBS) is performed. PET/CT images are acquired after incubation and washing of crystals, ^18FDG amino-Ad-Pam-Monomer has about 5-fold specificity for HA over other calcium salts found in the body and permits PET/CT detection of HA with high sensitivity. However, Na^18F, the Food and Drug Administration approved imaging agent for bone scintigraphy, permits about 1.5 fold specificity for HA over other calcium salts.
In a 96-well plate, 5 mg/mL of hydroxyapatite (HA) or the phosphate, oxalate, carbonate, and pyrophosphate salts of calcium are separately incubated with ^18FDG amino-Ad-Pam-Monomer (10 μCi) in 100 μL PBS for 20 min with continuous vortexing at RT. Crystals are washed 4 times with a 100-fold excess of PBS, centrifuged and mounted on PET/CT and 10 minute static scans are acquired. Similarly, calcium salt binding study is performed with Na^18F in a same condition.

[18F-].[Na+] [Na^18F]
specificity for HA over other calcium salts: about 1.5 fold
